Each block holds one compound with its values, some of them ahead of it.
Assay: Biodistribution of the 99mTc(N) heterocomplexes in rats (organ uptake, heart accumulation, heart/lung and heart/liver ratios)
Type: in vivo, female Sprague-Dawley rats
Conditions: rats
Method: The biodistribution was measured by using female Sprague-Dawley rats (SD rats) weighing 200 g to 250 g. Each of the ^99mTc(N) heterocomplexes purified in the manner described above was diluted with phosphate buffer (0.1 M, pH=7.4) to obtain a final solution having an ethanol content of 10%. After the SD rats were anesthetized with an intramuscular injection of a mixture of ketamine (80 mg/kg) and xilazine (19 mg/kg), the jugular vein of each rat was surgically exposed and 100 μL (300 to 370 kBq) of the solution containing each ^99mTc(N) heterocomplexes prepared in the manner described above was injected in the jugular vein. The rats (n=3) were sacrificed by cervical dislocation at different times post injection. The blood was withdrawn from the heart through a syringe and counted. It was assumed that the whole blood content was 6.5% of the total body weight. The organs were excised from the rats, washed with physiological saline, weighed, and counted in a NaI well counter.
For comparison, Tables 19 and 20 show the results, obtained in the same manner as above, of measuring the biodistribution of (^99mTc) (MIBI) and (^99mTc) (Tf) which have been used as pharmaceuticals for diagnostic imaging for blood flow in myocardium.
Tables 21 to 23 show data showing the variations with time of heart accumulation, heart/lung ratios and heart/liver ratios for the ^99mTc(N) heterocomplexes of the present invention.

SMILES: CCOCCC[P]1(CCCOCC)CCN(CCOCC)CC[P](CCCOCC)(CCCOCC)[99Tc+]12(#[N])[S]C(N(CCOCC)CCOCC)=[S]2 [PNP6•DBODC]
Biodistribution, Adrenal glands (0 min): 2.60 % dose/g | Biodistribution, Blood (0 min): 1.42 % dose/g | Biodistribution, Brain (0 min): 0.18 % dose/g | Biodistribution, Heart (0 min): 2.26 % dose/g | Biodistribution, Intestine (0 min): 2.91 % dose/g | Biodistribution, Kidneys (0 min): 5.56 % dose/g | Biodistribution, Liver (0 min): 3.59 % dose/g | Biodistribution, Lungs (0 min): 3.87 % dose/g | Biodistribution, Muscle (0 min): 0.06 % dose/g | Biodistribution, Spleen (0 min): 1.68 % dose/g | Biodistribution, Submax. glands (0 min): 1.17 % dose/g | Biodistribution, Adrenal glands (2 min): 3.49 % dose/g | Biodistribution, Blood (2 min): 0.17 % dose/g | Biodistribution, Brain (2 min): 0.03 % dose/g | Biodistribution, Heart (2 min): 1.241 % dose/g | Biodistribution, Intestine (2 min): 3.54 % dose/g | Biodistribution, Kidneys (2 min): 9.57 % dose/g | Biodistribution, Liver (2 min): 5.94 % dose/g | Biodistribution, Lungs (2 min): 1.25 % dose/g | Biodistribution, Muscle (2 min): 0.17 % dose/g | Biodistribution, Spleen (2 min): 3.85 % dose/g | Biodistribution, Submax. glands (2 min): 1.26 % dose/g | Biodistribution, Adrenal glands (10 min): 4.48 % dose/g | Biodistribution, Blood (10 min): 0.06 % dose/g | Biodistribution, Brain (10 min): 0.03 % dose/g | Biodistribution, Heart (10 min): 1.39 % dose/g | Biodistribution, Intestine (10 min): 6.21 % dose/g | Biodistribution, Kidneys (10 min): 9.80 % dose/g | Biodistribution, Liver (10 min): 7.71 % dose/g | Biodistribution, Lungs (10 min): 1.10 % dose/g | Biodistribution, Muscle (10 min): 0.16 % dose/g | Biodistribution, Spleen (10 min): 4.00 % dose/g | Biodistribution, Submax. glands (10 min): 1.27 % dose/g | Biodistribution, Adrenal glands (20 min): 3.19 % dose/g | Biodistribution, Blood (20 min): 0.03 % dose/g | Biodistribution, Brain (20 min): 0.03 % dose/g | Biodistribution, Heart (20 min): 1.18 % dose/g | Biodistribution, Intestine (20 min): 8.54 % dose/g | Biodistribution, Kidneys (20 min): 8.18 % dose/g | Biodistribution, Liver (20 min): 6.55 % dose/g | Biodistribution, Lungs (20 min): 0.80 % dose/g | Biodistribution, Muscle (20 min): 0.09 % dose/g | Biodistribution, Spleen (20 min): 3.13 % dose/g | Biodistribution, Submax. glands (20 min): 1.03 % dose/g | Biodistribution, Adrenal glands (30 min): 3.08 % dose/g | Biodistribution, Blood (30 min): 0.05 % dose/g | Biodistribution, Brain (30 min): 0.02 % dose/g | Biodistribution, Heart (30 min): 1.05 % dose/g | Biodistribution, Intestine (30 min): 7.75 % dose/g | Biodistribution, Kidneys (30 min): 7.52 % dose/g | Biodistribution, Liver (30 min): 4.66 % dose/g | Biodistribution, Lungs (30 min): 0.60 % dose/g | Biodistribution, Muscle (30 min): 0.11 % dose/g | Biodistribution, Spleen (30 min): 2.43 % dose/g | Biodistribution, Submax. glands (30 min): 1.08 % dose/g | Biodistribution, Adrenal glands (60 min): 3.49 % dose/g | Biodistribution, Blood (60 min): 0.02 % dose/g | Biodistribution, Brain (60 min): 0.01 % dose/g | Biodistribution, Heart (60 min): 1.10 % dose/g | Biodistribution, Intestine (60 min): 8.37 % dose/g | Biodistribution, Kidneys (60 min): 6.60 % dose/g | Biodistribution, Liver (60 min): 3.55 % dose/g | Biodistribution, Lungs (60 min): 0.48 % dose/g | Biodistribution, Muscle (60 min): 0.12 % dose/g | Biodistribution, Spleen (60 min): 2.64 % dose/g | Biodistribution, Submax. glands (60 min): 1.30 % dose/g | Biodistribution, Adrenal glands (120 min): 3.47 % dose/g | Biodistribution, Blood (120 min): 0.02 % dose/g | Biodistribution, Brain (120 min): 0.01 % dose/g | Biodistribution, Heart (120 min): 1.29 % dose/g | Biodistribution, Intestine (120 min): 9.70 % dose/g | Biodistribution, Kidneys (120 min): 8.83 % dose/g | Biodistribution, Liver (120 min): 2.55 % dose/g | Biodistribution, Lungs (120 min): 0.33 % dose/g | Biodistribution, Muscle (120 min): 0.14 % dose/g | Biodistribution, Spleen (120 min): 2.02 % dose/g | Biodistribution, Submax. glands (120 min): 1.36 % dose/g

SMILES: CCOCCN1CC[P](CCCOC)(CCCOC)[99Tc+]2(#[N])([S]C(N(CCOCC)C(C)C)=[S]2)[P](CCCOC)(CCCOC)CC1 [[^99m−Tc(N) (PNP5) (ISOET)^+]]
Heart accumulation (0 min): 3.35 ± 0.51 % ID/g | Heart accumulation (2 min): 2.33 ± 0.17 % ID/g | Heart accumulation (10 min): 2.91 ± 0.36 % ID/g | Heart accumulation (20 min): 2.86 ± 0.07 % ID/g | Heart accumulation (30 min): 2.47 ± 0.49 % ID/g | Heart accumulation (60 min): 2.74 ± 0.19 % ID/g | Heart accumulation (120 min): 2.44 ± 0.05 % ID/g

SMILES: CCOCCN1CC[P](CCCOC)(CCCOC)[99Tc+]2(#[N])([S]C(N(CCOCC)CCOCC)=[S]2)[P](CCCOC)(CCCOC)CC1 [[^99m−Tc(N) (PNP5) (DBODC)^+]]
Heart accumulation (0 min): 5.01 ± 0.16 % ID/g | Heart accumulation (2 min): 3.94 ± 0.32 % ID/g | Heart accumulation (10 min): 3.69 ± 0.29 % ID/g | Heart accumulation (20 min): 3.63 ± 0.46 % ID/g | Heart accumulation (30 min): 3.73 ± 0.48 % ID/g | Heart accumulation (60 min): 3.76 ± 0.39 % ID/g | Heart accumulation (120 min): 3.31 ± 0.06 % ID/g

Other lines, results leading:

Heart accumulation (0 min): 3.57 ± 0.14 % ID/g | Heart/liver ratio in biodistribution (0 min): 2.45 | Heart/lung ratio in biodistribution (0 min): 2.32 | Heart accumulation (2 min): 3.42 ± 0.19 % ID/g | Heart/liver ratio in biodistribution (2 min): 1.99 | Heart/lung ratio in biodistribution (2 min): 3.39 | Heart accumulation (10 min): 3.65 ± 0.56 % ID/g | Heart/liver ratio in biodistribution (10 min): 2.55 | Heart/lung ratio in biodistribution (10 min): 4.74 | Heart accumulation (20 min): 3.32 ± 0.18 % ID/g | Heart/liver ratio in biodistribution (20 min): 3.82 | Heart/lung ratio in biodistribution (20 min): 3.95 | Heart accumulation (30 min): 3.27 ± 0.36 % ID/g | Heart/liver ratio in biodistribution (30 min): 7.79 | Heart/lung ratio in biodistribution (30 min): 4.74 | Heart accumulation (60 min): 3.27 ± 0.62 % ID/g | Heart/liver ratio in biodistribution (60 min): 20.44 | Heart/lung ratio in biodistribution (60 min): 9.60 | Heart accumulation (120 min): 3.00 ± 0.42 % ID/g | Heart/liver ratio in biodistribution (120 min): 25.01 | Heart/lung ratio in biodistribution (120 min): 11.10
SMILES: CCOCCN(CCOCC)C1=[S][99Tc+]2(#[N])([S]1)[P](CCCOC)(CCCOC)CCN(CCOC)CC[P]2(CCCOC)CCCOC [[^99m−Tc(N) (PNP3) (DBODC)^+]]

Heart accumulation (0 min): 3.08 ± 0.31 % ID/g | Heart/liver ratio in biodistribution (0 min): 0.89 | Heart/lung ratio in biodistribution (0 min): 2.12 | Heart accumulation (2 min): 2.06 ± 0.13 % ID/g | Heart/liver ratio in biodistribution (2 min): 0.56 | Heart/lung ratio in biodistribution (2 min): 3.17 | Heart accumulation (10 min): 2.37 ± 0.33 % ID/g | Heart/liver ratio in biodistribution (10 min): 0.68 | Heart/lung ratio in biodistribution (10 min): 3.54 | Heart accumulation (20 min): 2.49 ± 0.31 % ID/g | Heart/liver ratio in biodistribution (20 min): 1.34 | Heart/lung ratio in biodistribution (20 min): 5.79 | Heart accumulation (30 min): 2.57 ± 0.06 % ID/g | Heart/liver ratio in biodistribution (30 min): 1.98 | Heart/lung ratio in biodistribution (30 min): 6.27 | Heart accumulation (60 min): 2.26 ± 0.06 % ID/g | Heart/liver ratio in biodistribution (60 min): 5.38 | Heart/lung ratio in biodistribution (60 min): 8.37 | Heart accumulation (120 min): 2.45 ± 0.41 % ID/g | Heart/liver ratio in biodistribution (120 min): 15.31 | Heart/lung ratio in biodistribution (120 min): 12.25
SMILES: COCCC[P]1(CCCOC)CCN(CCOC)CC[P](CCCOC)(CCCOC)[99Tc+]12(#[N])[S]C(N(CCOC)CCOC)=[S]2 [[^99m−Tc(N) (PNP3) (DPODC)^+]]

Source: patent US7445765B2, “Radiopharmaceutical for diagnostic imaging containing a technetium-99m nitride heterocomplex” (Nihon Medi-Physics Co., Ltd., priority 2000, dated 2008)
